Where two headings read alike, the source gives them in different places.
What was measured:
[1] = system: Nluc expressing C. parvum; assay: Nluc expressing C. parvum in vitro growth inhibition in infected HCT-8 cells; assay type: cell-based; settings: Cryptosporidium parvum
Excerpt: (§1) Methods for synthesis of BKIs ([17], [23]), efficacy against Nluc expressing C. parvum in infected adult IFN-γ KO mice ([6], [9]), in vivo mouse GI tract tissue exposure by LC/MS-MS analysis ([18], [28]), PK analysis of mouse plasma and brain tissue BKI concentrations by LC/MS-MS analysis ([29]), in vivo rat and dog cardiotoxicity screen ([30]), efficacy against IOWA-II strain C. parvum in infected neonatal calves ([13]), efficacy against C. hominis in infected piglets ([12]), in vitro inhibition of C. parvum CDPK1 (CpCDPK1) and human tyrosine kinase SRC (HsSRC) activity ([31]), in vitro inhibition of hERG ([32]), Nluc expressing C. parvum in vitro growth inhibition in infected HCT-8 cells ([6]), in vitro cytotoxicity in CRL-8155 and HepG2 cells ([29]), and mouse locomotor activity box ([33], [34]) have all been previously described. Analytes were measured by LC/MS-MS on an Acquity ultra performance liquid chromatography (UPLC) system in tandem with a Xevo TQ-S mass spectrometer (Waters, Milford, MA, USA).

[2] = In vitro cytotoxicity in HepG2 cells; assay type: cell-based; settings: human
Excerpt: as §1

Aqueous solubility = assay type: physicochemical
Excerpt: TABLE 1 In vitro properties of bumped kinase inhibitors^a | column: Solubility at pH 2 (μM); Solubility at pH 6.5 (μM)

[3] = Plasma levels and toxicity signs in treated piglets; assay type: in vivo, piglet; settings: for Cmax: pig, plasma, 5 mg/kg, 5 mg/kg BID
[4] = Multidose calf toxicity study; assay type: in vivo; settings: calves
Procedure: Male and female calves were dosed orally with 7.5 or 15 mg/kg BID for 5 days. Adverse effects began on day 4, so the 7.5 mg/kg group received 9 doses total and the 15 mg/kg group received 7 doses total before the experiment was terminated.
A control group of male and female rats were administered vehicle only for controls. […] Observations of feeding and general health were made twice daily. Clinical assessments were made at 1 h after each treatment. Blood was collected for hematology and blood chemistry before the first dose and prior to euthanasia. Necropsy and histology of organs (Liver, heart, lung, kidney, spleen, thymus, brain, spinal cord, nerves of the front and back legs, including muscle, bone marrow femur, stomach, small and large intestine, including lymph nodes, and femur and sternum, including epiphyseal plates, distal hind limb, and thyroid gland) were performed after euthanasia.

[5] = cited from earlier work; for CO / HR / MAP / PR / QRS / QTcV / SVR / dp/dt@50: dog, IV 0.02 mL/kg/min
[6] = cited from earlier work; for HR / MAP / dP/dt@50: rat

CCOc1ccc2cc(-c3nn(C4CCOCC4)c(N)c3C(N)=O)ccc2n1 [BKI-1841]
EC50 [1]: 700 nM
CC50 [2]: > 80000 nM
solubility (Aqueous solubility; aqueous medium at pH 2, pH 2, simulated gastric fluid, read-out: Solubility at pH 2): > 100 µM
solubility (Aqueous solubility; aqueous medium at pH 6.5, pH 6.5, aqueous buffer, read-out: Solubility at pH 6.5): > 100 µM

CCOc1ccc2cc(-c3nn(C(C)(C)CCO)c(N)c3C(N)=O)ccc2c1 [BKI-1770]
visible signs of toxicity ([3]; 5 mg/kg BID for 5 or 8 days): no visible signs of toxicity
Cmax ([3]; at 2 h post dose 5, read-out: plasma observed Cmax): 2100 ± 1400 nM
Cmax ([3]; at 2 h post dose 8, read-out: plasma observed Cmax): 900 ± 400 nM
bone findings ([4]; both 7.5 and 15 mg/kg BID groups): changes to the epiphyseal growth plates in the femur and sternum
locomotion findings ([4]; oral 15 mg/kg BID, 7 doses total): locomotion problems on days 2 and 3
effects on MAP, HR, contractility, SVR, CO, QTcV, QRS, PR vs control ([5]; anesthetized dogs, 0.02 mL/kg/min, 150 min): No appreciable effects
CO ([5]; 15 min): 0%
HR ([5]; 15 min): 4%
MAP ([5]; 15 min): 2%
PR ([5]; 15 min): -3 ms
QRS ([5]; 15 min): 0 ms
QTcV ([5]; 15 min): 4 ms
SVR ([5]; 15 min): 2%
dp/dt@50 ([5]; 15 min): 1%
CO ([5]; 30 min): 4%
HR ([5]; 30 min): 5%
MAP ([5]; 30 min): 2%
PR ([5]; 30 min): 0 ms
QRS ([5]; 30 min): 0 ms
QTcV ([5]; 30 min): 1 ms
SVR ([5]; 30 min): -1%
dp/dt@50 ([5]; 30 min): 0%
CO ([5]; 45 min): 3%
HR ([5]; 45 min): 8%
MAP ([5]; 45 min): 2%
PR ([5]; 45 min): -1 ms
QRS ([5]; 45 min): -1 ms
QTcV ([5]; 45 min): 1 ms
SVR ([5]; 45 min): -2%
dp/dt@50 ([5]; 45 min): 1%
CO ([5]; 60 min): -1%
HR ([5]; 60 min): 9%
MAP ([5]; 60 min): 2%
PR ([5]; 60 min): -1 ms
QRS ([5]; 60 min): -2 ms
QTcV ([5]; 60 min): -1 ms
SVR ([5]; 60 min): 2%
dp/dt@50 ([5]; 60 min): -1%
CO ([5]; 75 min): -1%
HR ([5]; 75 min): 9%
MAP ([5]; 75 min): 0%
PR ([5]; 75 min): -1 ms
QRS ([5]; 75 min): -2 ms
QTcV ([5]; 75 min): -3 ms
SVR ([5]; 75 min): 1%
dp/dt@50 ([5]; 75 min): -2%
CO ([5]; 90 min): -9%
HR ([5]; 90 min): 10%
MAP ([5]; 90 min): -1%
PR ([5]; 90 min): 0 ms
QRS ([5]; 90 min): -2 ms
QTcV ([5]; 90 min): -2 ms
SVR ([5]; 90 min): 8%
dp/dt@50 ([5]; 90 min): -6%
CO ([5]; 105 min): -4%
HR ([5]; 105 min): 9%
MAP ([5]; 105 min): -2%
PR ([5]; 105 min): 0 ms
QRS ([5]; 105 min): -3 ms
QTcV ([5]; 105 min): -1 ms
SVR ([5]; 105 min): 2%
dp/dt@50 ([5]; 105 min): -7%
CO ([5]; 120 min): -5%
HR ([5]; 120 min): 10%
MAP ([5]; 120 min): -2%
PR ([5]; 120 min): -1 ms
QRS ([5]; 120 min): -2 ms
QTcV ([5]; 120 min): 0 ms
SVR ([5]; 120 min): 4%
dp/dt@50 ([5]; 120 min): -7%
CO ([5]; 135 min): -8%
HR ([5]; 135 min): 11%
MAP ([5]; 135 min): -3%
PR ([5]; 135 min): -1 ms
QRS ([5]; 135 min): -1 ms
QTcV ([5]; 135 min): -2 ms
SVR ([5]; 135 min): 7%
dp/dt@50 ([5]; 135 min): -7%
CO ([5]; 150 min): -7%
HR ([5]; 150 min): 13%
MAP ([5]; 150 min): -5%
PR ([5]; 150 min): -2 ms
QRS ([5]; 150 min): -1 ms
QTcV ([5]; 150 min): -1 ms
SVR ([5]; 150 min): 4%
dp/dt@50 ([5]; 150 min): -7%
signs of cardiotoxicity ([5]; dogs): no signs of cardiotoxicity
effects on MAP, HR, left ventricular contractility vs vehicle ([6]; anesthetized rats, 30-minute IV infusions of 3, 10, 30 mg/kg, significant >15%): No significant effects
HR ([6]; IV 3 mg/kg): 8%
MAP ([6]; IV 3 mg/kg): -7%
dP/dt@50 ([6]; IV 3 mg/kg): 0%
HR ([6]; IV 10 mg/kg): 8%
MAP ([6]; IV 10 mg/kg): 5%
dP/dt@50 ([6]; IV 10 mg/kg): 9%
HR ([6]; IV 30 mg/kg): 3%
MAP ([6]; IV 30 mg/kg): -7%
dP/dt@50 ([6]; IV 30 mg/kg): 8%
signs of cardiotoxicity ([6]; rats): no signs of cardiotoxicity

— paper PMC10112232, “Comparison of Toxicities among Different Bumped Kinase Inhibitor Analogs for Treatment of Cryptosporidiosis” (Antimicrobial Agents and Chemotherapy, 2023)
